Data reported in ChEMBL document CHEMBL1201862, “PubChem BioAssay data set” (2004).
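1) Cells in 96-well plates. 2) Compound, 48 h, 5 concentrations. 3) Linear interpolation between surrounding doses. 4) Unreached endpoint = highest concentration. Here, GI50 denotes the concentration required for 50% inhibition of growth.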 Activity calls are given as the source filed them. No stated cut-off is given here; in the data, active = GI50 up to about 1.1 µM and inactive = higher.

Legend:
Test in all cases: NCI anticancer screen, dose series, 48 h
SK-MEL-28 = test system: SK-MEL-28
SK-MEL-2 = test system: SK-MEL-2
K562 = test system: K562
Malme-3M = test system: Malme-3M
786-0 = test system: 786-0
COLO 205 = test system: COLO 205
SW-620 = test system: SW-620
TK-10 = test system: TK-10
MOLT-4 = test system: MOLT-4
U-251 = test system: U-251
SF-295 = test system: SF-295
OVCAR-3 = test system: OVCAR-3
SF-539 = test system: SF-539
SN12C = test system: SN12C
UO-31 = test system: UO-31
SR = test system: SR

SMILES | GI50 (SK-MEL-28) | GI50 (SK-MEL-2) | GI50 (K562) | GI50 (Malme-3M) | GI50 (786-0) | GI50 (COLO 205) | GI50 (SW-620) | GI50 (TK-10) | GI50 (MOLT-4) | GI50 (U-251) | GI50 (SF-295) | GI50 (OVCAR-3) | GI50 (SF-539) | GI50 (SN12C) | GI50 (UO-31) | GI50 (SR)
Cc1ccc2c(CC(=O)O)cc(=O)oc2c1 | > 100 µM (inactive) | > 100 µM (inactive) | > 100 µM (inactive) | > 100 µM (inactive) | > 100 µM (inactive) | > 100 µM (inactive) | > 100 µM (inactive) | > 100 µM (inactive) | > 100 µM (inactive) | > 100 µM (inactive) | > 100 µM (inactive) | > 100 µM (inactive) | > 100 µM (inactive) | > 100 µM (inactive) |  | 
CCN(CC)/[N+]([O-])=N/OCC(C)O (stereo not given) | > 100 µM (inactive) | > 100 µM (inactive) | > 100 µM (inactive) |  | > 100 µM (inactive) |  | > 100 µM (inactive) | > 100 µM (inactive) | > 100 µM (inactive) | > 100 µM (inactive) | > 100 µM (inactive) | > 100 µM (inactive) | > 100 µM (inactive) | > 100 µM (inactive) | > 100 µM (inactive) | > 100 µM (inactive)
CC1CCC[P+](Cc2ccccc2)(c2ccccc2)CC1 (stereo not given) | 41.2 µM (inactive) | 21.6 µM (inactive) | 31.3 µM (inactive) | 4.99 µM (inactive) | > 100 µM (inactive) | 40.4 µM (inactive) | 94.4 µM (inactive) | > 100 µM (inactive) | 78.5 µM (inactive) | 77.4 µM (inactive) |  |  | 69.5 µM (inactive) | > 100 µM (inactive) | > 100 µM (inactive) | 
CC(/C=C/c1ccccc1)=N\N=C(C)\C=C\c1ccccc1 | > 100 µM (inactive) | > 100 µM (inactive) | > 100 µM (inactive) | > 100 µM (inactive) | > 100 µM (inactive) | > 10 µM (inactive) | > 100 µM (inactive) | > 100 µM (inactive) | > 100 µM (inactive) | > 100 µM (inactive) | > 100 µM (inactive) | > 100 µM (inactive) |  | > 100 µM (inactive) |  | > 100 µM (inactive)
COC(=O)/C(=N\NC(=O)c1ccccc1O)C(C#N)c1ccccc1 (stereo not given) | > 50 µM (inactive) | > 50 µM (inactive) | 16.4 µM (inactive) | 21.4 µM (inactive) | 17.4 µM (inactive) | > 50 µM (inactive) | 23.5 µM (inactive) | > 46.7 µM (inactive) | 22.3 µM (inactive) | 32.1 µM (inactive) | 22.1 µM (inactive) | 16.6 µM (inactive) | 14.8 µM (inactive) | 37.4 µM (inactive) | 12.9 µM (inactive) | 
O=C(N/C(=C\c1cc(Cl)ccc1Cl)c1nc2ccccc2[nH]1)c1ccccc1 | 45.3 µM (inactive) | 52 µM (inactive) | 24.4 µM (inactive) | 19.7 µM (inactive) | 18 µM (inactive) |  | 22 µM (inactive) | 93.3 µM (inactive) | 14.9 µM (inactive) | 29.7 µM (inactive) | 24.5 µM (inactive) | 36.3 µM (inactive) | 39.3 µM (inactive) | 32.1 µM (inactive) | 20.2 µM (inactive) | 24.4 µM (inactive)
COc1cc(OC)c(OC)cc1/C=N/NC(=O)N/N=C/c1cc(OC)c(OC)cc1OC | > 100 µM (inactive) | > 100 µM (inactive) | > 100 µM (inactive) | > 100 µM (inactive) | > 100 µM (inactive) | > 100 µM (inactive) | > 100 µM (inactive) | > 100 µM (inactive) | > 100 µM (inactive) | > 100 µM (inactive) | > 100 µM (inactive) | > 100 µM (inactive) | 33.6 µM (inactive) | > 100 µM (inactive) | > 100 µM (inactive) | 
CCCN(CCCC(NC(C)=O)C(=O)NCc1ccccc1)C(=O)N(C)N=O (stereo not given) | > 100 µM (inactive) | > 100 µM (inactive) | > 100 µM (inactive) | > 100 µM (inactive) | > 100 µM (inactive) | > 100 µM (inactive) | > 100 µM (inactive) | > 100 µM (inactive) | 77.6 µM (inactive) | > 100 µM (inactive) | > 100 µM (inactive) | > 100 µM (inactive) | > 100 µM (inactive) | > 100 µM (inactive) |  | 
Cc1ccc(/C=C/C(=O)C(C)(C)CN2CCCCC2)cc1 | 16.4 µM (inactive) | 10.7 µM (inactive) | 2.27 µM (inactive) | 13.3 µM (inactive) | 6 µM (inactive) | 3.66 µM (inactive) | 2.72 µM (inactive) | 11.6 µM (inactive) | 2.47 µM (inactive) | 13.7 µM (inactive) | 7.8 µM (inactive) | 2.81 µM (inactive) | 4.6 µM (inactive) | 3.9 µM (inactive) | 10.3 µM (inactive) | 
CCN(CC)c1ccc2c(c1)Oc1ccc(N(CC)CC)cc1C21Oc2ccccc2-c2c1c1ccccc1n2CC (stereo not given) | 2 µM (inactive) |  | 0.679 µM (active) | 1.73 µM (inactive) | 4.05 µM (inactive) | 2.45 µM (inactive) | 3.58 µM (inactive) |  | 2.88 µM (inactive) | 1.68 µM (inactive) | 2.7 µM (inactive) | 1.25 µM (inactive) |  | 3.68 µM (inactive) | 1.43 µM (inactive) | 4.48 µM (inactive)
C=CC/N=C1/N=C(CC(=O)OCC)CS1 | > 100 µM (inactive) | > 100 µM (inactive) | > 100 µM (inactive) | > 100 µM (inactive) | > 100 µM (inactive) | > 100 µM (inactive) | > 100 µM (inactive) | > 100 µM (inactive) |  | > 100 µM (inactive) | > 100 µM (inactive) | > 100 µM (inactive) | > 100 µM (inactive) | > 100 µM (inactive) | > 100 µM (inactive) | 
COC1OC(CO)C(O)C1N (stereo not given) | > 100 µM (inactive) |  | > 100 µM (inactive) | > 100 µM (inactive) | > 100 µM (inactive) | > 100 µM (inactive) | > 100 µM (inactive) | > 100 µM (inactive) | > 100 µM (inactive) | > 100 µM (inactive) | > 100 µM (inactive) | > 100 µM (inactive) | > 100 µM (inactive) | > 100 µM (inactive) |  | > 100 µM (inactive)
CC(=O)N(C)c1ccc2ncccc2c1[N+](=O)[O-] | > 100 µM (inactive) | > 100 µM (inactive) | > 100 µM (inactive) | > 100 µM (inactive) | > 100 µM (inactive) |  | > 100 µM (inactive) | > 100 µM (inactive) | > 100 µM (inactive) |  | > 100 µM (inactive) | > 100 µM (inactive) | > 100 µM (inactive) | > 100 µM (inactive) | > 100 µM (inactive) | > 100 µM (inactive)
NNC(=O)N/N=C1\C(=O)N(c2nccs2)C(=O)C(=O)C1c1nc2ccccc2s1 (stereo not given) | > 100 µM (inactive) | > 100 µM (inactive) |  | > 100 µM (inactive) | > 100 µM (inactive) | > 100 µM (inactive) | > 100 µM (inactive) | > 100 µM (inactive) |  | > 100 µM (inactive) | > 100 µM (inactive) | > 100 µM (inactive) | > 100 µM (inactive) | > 100 µM (inactive) | > 100 µM (inactive) | 
Cc1ccc(C)c(NC2=NC(=O)C(CC(=O)Nc3ccc(Cl)cc3Cl)S2)c1 (stereo not given) | 77.6 µM (inactive) | 29.5 µM (inactive) | 80.2 µM (inactive) | 70.5 µM (inactive) | 51.8 µM (inactive) | 88.7 µM (inactive) | > 100 µM (inactive) | > 100 µM (inactive) | 54.8 µM (inactive) | 36.1 µM (inactive) | > 100 µM (inactive) | 49.9 µM (inactive) | 41.4 µM (inactive) | > 100 µM (inactive) | > 100 µM (inactive) | 
Cc1c(Cl)cccc1NC(=O)C(=O)C(C(=O)c1ccccc1-c1ccccc1)C1OC(=O)c2ccccc21 (stereo not given) | 19 µM (inactive) | 16.1 µM (inactive) | 27.9 µM (inactive) | 12.7 µM (inactive) | 16.6 µM (inactive) | 20.2 µM (inactive) | 21.3 µM (inactive) | 28.6 µM (inactive) | 14.3 µM (inactive) | 13.5 µM (inactive) | 19.1 µM (inactive) | 16 µM (inactive) | 14.7 µM (inactive) |  | 20.4 µM (inactive) | 
CN1CCC(O)C(CNC23CC4CC(CC(C4)C2)C3)C1 (stereo not given) | > 10 µM (inactive) | > 100 µM (inactive) | > 100 µM (inactive) | > 100 µM (inactive) | > 100 µM (inactive) | > 100 µM (inactive) | > 100 µM (inactive) | > 100 µM (inactive) | > 100 µM (inactive) | > 100 µM (inactive) | > 100 µM (inactive) |  | > 100 µM (inactive) | > 100 µM (inactive) | > 100 µM (inactive) | > 100 µM (inactive)
Cn1c(=O)nc2n(-c3cc(Cl)ccc3Cl)c3ccccc3nc-2c1=O |  | 5.62 µM (inactive) | 6.4 µM (inactive) | 3.78 µM (inactive) | 8.45 µM (inactive) | 1.82 µM (inactive) | 2.18 µM (inactive) | 12.3 µM (inactive) | 8.02 µM (inactive) | 6.4 µM (inactive) | 7.62 µM (inactive) | 2.95 µM (inactive) | 5.92 µM (inactive) | 4.48 µM (inactive) | 13.6 µM (inactive) | 
COc1ccc(/C=C/c2cc(OC)c(OC)c(OC)c2)cc1 | 18.7 µM (inactive) | 2.36 µM (inactive) | 3.2 µM (inactive) | 3.27 µM (inactive) | 11.1 µM (inactive) | 3.14 µM (inactive) | 5.77 µM (inactive) | 43.7 µM (inactive) | 2.21 µM (inactive) | 2.61 µM (inactive) | 2.73 µM (inactive) | 3.26 µM (inactive) | 4.29 µM (inactive) | 13.2 µM (inactive) | 4.68 µM (inactive) | 
